Reference: patent US20260256792A1, “TREATMENT OF CHRONIC SPONTANEOUS URTICARIA BY ADMINISTERING (R)-2-[3-[4-AMINO-3-(2-FLUORO-4-PHENOXY-PHENYL)PYRAZOLO[3,4-D]PYRIMIDIN-1-YL]PIPERIDINE-1-CARBONYL]-4-METHYL-4-[4-(OXETAN-3-YL)PIPERAZIN-1-YL]PENT-2-ENENITRILE” (priority 2023, published 2026)

System: moderate-to-severe chronic spontaneous urticaria (CSU)
Assay: Phase 2 CSU study: urticaria activity score over 7 days (UAS7)
Format: in vivo, human
Set-up: key to UAS7 Median / UAS7 Change from baseline Median / UAS7 change from baseline, Q1 / UAS7 change from baseline, Q3 / UAS7 change from baseline, Max / UAS7 Change from baseline LS Mean (SE): UAS7 points; daily UAS score ranges 0–6 points/day, over 7 days
Conditions: for Imputed non-responder n (%), UAS7 = 0 / Imputed non-responder n (%), UAS7 ≤6 / Non-responder n (%), UAS7 = 0 / Non-responder n (%), UAS7 ≤6 / OR for rilzabrutinib vs. placebo, UAS7 = 0 / OR for rilzabrutinib vs. placebo, UAS7 ≤6 / RRD (%) for rilzabrutinib vs. placebo, UAS7 = 0 / RRD (%) for rilzabrutinib vs. placebo, UAS7 ≤6 / Responder n (%), UAS7 = 0 / Responder n (%), UAS7 ≤6: Omalizumab-naïve, 400 mg TID; for Non-responder, UAS7 reduction from baseline of 10 points or more / OR for rilzabrutinib vs. placebo, UAS7 reduction of 10 points or more / RRD (%) for rilzabrutinib vs. placebo, UAS7 reduction of 10 points or more / Responder, UAS7 reduction from baseline of 10 points or more / UAS7 Change from baseline Mean (SD) / UAS7 Change from baseline Median / UAS7 Mean (SD) / UAS7 Median / UAS7 Percent change from baseline Mean (SD) / UAS7 Percent change from baseline Median: Week 1
From the text: The study comprises a 12 week, randomized, double-blind, placebo-controlled, multi-center, dose-ranging efficacy and safety phase, followed by a 40 week open label extension (OLE) phase (see FIG. 1). The study consists of three phases and an optional OLE phase. […] Clinically, CSU is characterized by the spontaneous and recurrent appearance of pruritic hives. The proposed primary endpoints were the UAS7 at Week 12 in EU and EU reference countries and the ISS7 in the US. Regardless of where a participant was from, all assessments were the same. The UAS7 score is a composite score containing both the HSS7 and the ISS7. This allowed a global assessment of the two key components of urticaria: hives and itch. […] The UAS is a validated PRO measure. […] The daily UAS scores range from 0 to 6 point/day. […] Patients were to complete the UAS using the e-diary. […] The following secondary endpoints were to be analyzed using the same approach as for the primary endpoint: • Change from baseline in UAS7 at Week 4 • Change from baseline in UAS7 at Week 12 (for US and US reference countries) • Change from baseline in ISS7 at Week 12 (except US and US reference countries) • Change from baseline in HSS7 at Week 12 The following responder secondary endpoints were to be analyzed using the Cochran-Mantel-Haenszel test adjusted by region: • Proportion of participants with UAS7<6 at Week 12 • Proportion of participants with UAS7=0 at Week 12 Participants who received selected prohibited medications and/or rescue medications were to be considered as non-responders for time points after the medication usage. For other participants, all available data including those collected during the off-treatment period were to be used to determine the responder/non-responder status. Missing data were to be considered as non-responders.

[1] = 400 mg BID, Prior Omalizumab Use
[2] = 400 mg BID, omalizumab-naive participants
[3] = 400 mg QPM, Prior Omalizumab Use

## CC(C)(C=C(C#N)C(=O)N1CCC[C@@H](n2nc(-c3ccc(Oc4ccccc4)cc3F)c3c(N)ncnc32)C1)N1CCN(C2COC2)CC1 [rilzabrutinib, (R)-2-[3-[4-amino-3-(2-fluoro-4-phenoxy-phenyl)pyrazolo[3,4-d]pyrimidin-1-yl]piperidine-1-carbonyl]-4-methyl-4-[4-(oxetan-3-yl)piperazin-1-yl]pent-2-enenitrile]
Week 3
  Imputed non-responder n (%), UAS7 = 0: 0 n (%)
  Imputed non-responder n (%), UAS7 ≤6: 0 n (%)
  Non-responder n (%), UAS7 = 0: 32 (91.4) n (%)
  Non-responder n (%), UAS7 ≤6: 27 (77.1) n (%)
  OR for rilzabrutinib vs. placebo, UAS7 = 0: 3.625
  OR for rilzabrutinib vs. placebo, UAS7 ≤6: 3.239
  RRD (%) for rilzabrutinib vs. placebo, UAS7 = 0: 5.8 %
  RRD (%) for rilzabrutinib vs. placebo, UAS7 ≤6: 13.6 %
  Responder n (%), UAS7 = 0: 3 (8.6) n (%)
  Responder n (%), UAS7 ≤6: 8 (22.9) n (%)
Week 4
  Imputed non-responder n (%), UAS7 = 0: 3 (8.6) n (%)
  Imputed non-responder n (%), UAS7 ≤6: 3 (8.6) n (%)
  Non-responder n (%), UAS7 = 0: 32 (91.4) n (%)
  Non-responder n (%), UAS7 ≤6: 30 (85.7) n (%)
  OR for rilzabrutinib vs. placebo, UAS7 = 0: 1.460
  OR for rilzabrutinib vs. placebo, UAS7 ≤6: 1.185
  RRD (%) for rilzabrutinib vs. placebo, UAS7 = 0: 2.5 %
  RRD (%) for rilzabrutinib vs. placebo, UAS7 ≤6: 1.8 %
  Responder n (%), UAS7 = 0: 3 (8.6) n (%)
  Responder n (%), UAS7 ≤6: 5 (14.3) n (%)
Week 5
  Imputed non-responder n (%), UAS7 = 0: 2 (5.7) n (%)
  Imputed non-responder n (%), UAS7 ≤6: 2 (5.7) n (%)
  Non-responder n (%), UAS7 = 0: 29 (82.9) n (%)
  Non-responder n (%), UAS7 ≤6: 25 (71.4) n (%)
  OR for rilzabrutinib vs. placebo, UAS7 = 0: 6.971
  OR for rilzabrutinib vs. placebo, UAS7 ≤6: 5.923
  RRD (%) for rilzabrutinib vs. placebo, UAS7 = 0: 13.2 %
  RRD (%) for rilzabrutinib vs. placebo, UAS7 ≤6: 19.7 %
  Responder n (%), UAS7 = 0: 6 (17.1) n (%)
  Responder n (%), UAS7 ≤6: 10 (28.6) n (%)
Week 6
  Imputed non-responder n (%), UAS7 = 0: 4 (11.4) n (%)
  Imputed non-responder n (%), UAS7 ≤6: 4 (11.4) n (%)
  Non-responder n (%), UAS7 = 0: 28 (80.0) n (%)
  Non-responder n (%), UAS7 ≤6: 27 (77.1) n (%)
  OR for rilzabrutinib vs. placebo, UAS7 = 0: 8.082
  OR for rilzabrutinib vs. placebo, UAS7 ≤6: 1.274
  RRD (%) for rilzabrutinib vs. placebo, UAS7 = 0: 15.6 %
  RRD (%) for rilzabrutinib vs. placebo, UAS7 ≤6: 3.7 %
  Responder n (%), UAS7 = 0: 7 (20.0) n (%)
  Responder n (%), UAS7 ≤6: 8 (22.9) n (%)
Week 7
  Imputed non-responder n (%), UAS7 = 0: 5 (14.3) n (%)
  Imputed non-responder n (%), UAS7 ≤6: 5 (14.3) n (%)
  Non-responder n (%), UAS7 = 0: 32 (91.4) n (%)
  Non-responder n (%), UAS7 ≤6: 26 (74.3) n (%)
  OR for rilzabrutinib vs. placebo, UAS7 = 0: 3.625
  OR for rilzabrutinib vs. placebo, UAS7 ≤6: 2.685
  RRD (%) for rilzabrutinib vs. placebo, UAS7 = 0: 5.8 %
  RRD (%) for rilzabrutinib vs. placebo, UAS7 ≤6: 13.4 %
  Responder n (%), UAS7 = 0: 3 (8.6) n (%)
  Responder n (%), UAS7 ≤6: 9 (25.7) n (%)
Week 8
  Imputed non-responder n (%), UAS7 = 0: 7 (20.0) n (%)
  Imputed non-responder n (%), UAS7 ≤6: 7 (20.0) n (%)
  Non-responder n (%), UAS7 = 0: 32 (91.4) n (%)
  Non-responder n (%), UAS7 ≤6: 26 (74.3) n (%)
  OR for rilzabrutinib vs. placebo, UAS7 = 0: 1.351
  OR for rilzabrutinib vs. placebo, UAS7 ≤6: 1.513
  RRD (%) for rilzabrutinib vs. placebo, UAS7 = 0: 1.9 %
  RRD (%) for rilzabrutinib vs. placebo, UAS7 ≤6: 6.3 %
  Responder n (%), UAS7 = 0: 3 (8.6) n (%)
  Responder n (%), UAS7 ≤6: 9 (25.7) n (%)
Week 9
  Imputed non-responder n (%), UAS7 = 0: 6 (17.1) n (%)
  Imputed non-responder n (%), UAS7 ≤6: 6 (17.1) n (%)
  Non-responder n (%), UAS7 = 0: 32 (91.4) n (%)
  Non-responder n (%), UAS7 ≤6: 24 (68.6) n (%)
  OR for rilzabrutinib vs. placebo, UAS7 = 0: 0.893
  OR for rilzabrutinib vs. placebo, UAS7 ≤6: 3.358
  RRD (%) for rilzabrutinib vs. placebo, UAS7 = 0: −0.9 %
  RRD (%) for rilzabrutinib vs. placebo, UAS7 ≤6: 16.7 %
  Responder n (%), UAS7 = 0: 3 (8.6) n (%)
  Responder n (%), UAS7 ≤6: 11 (31.4) n (%)
Week 10
  Imputed non-responder n (%), UAS7 = 0: 5 (14.3) n (%)
  Imputed non-responder n (%), UAS7 ≤6: 5 (14.3) n (%)
  Non-responder n (%), UAS7 = 0: 31 (88.6) n (%)
  Non-responder n (%), UAS7 ≤6: 25 (71.4) n (%)
  OR for rilzabrutinib vs. placebo, UAS7 = 0: 0.819
  OR for rilzabrutinib vs. placebo, UAS7 ≤6: 2.241
  RRD (%) for rilzabrutinib vs. placebo, UAS7 = 0: −1.7 %
  RRD (%) for rilzabrutinib vs. placebo, UAS7 ≤6: 12.1 %
  Responder n (%), UAS7 = 0: 4 (11.4) n (%)
  Responder n (%), UAS7 ≤6: 10 (28.6) n (%)
Week 11
  Imputed non-responder n (%), UAS7 = 0: 4 (11.4) n (%)
  Imputed non-responder n (%), UAS7 ≤6: 4 (11.4) n (%)
  Non-responder n (%), UAS7 = 0: 31 (88.6) n (%)
  Non-responder n (%), UAS7 ≤6: 24 (68.6) n (%)
  OR for rilzabrutinib vs. placebo, UAS7 = 0: 1.846
  OR for rilzabrutinib vs. placebo, UAS7 ≤6: 1.971
  RRD (%) for rilzabrutinib vs. placebo, UAS7 = 0: 4.3 %
  RRD (%) for rilzabrutinib vs. placebo, UAS7 ≤6: 11.2 %
  Responder n (%), UAS7 = 0: 4 (11.4) n (%)
  Responder n (%), UAS7 ≤6: 11 (31.4) n (%)
Week 12
  Imputed non-responder n (%), UAS7 = 0: 8 (22.9) n (%)
  Imputed non-responder n (%), UAS7 ≤6: 8 (22.9) n (%)
  Non-responder n (%), UAS7 = 0: 28 (80.0) n (%)
  Non-responder n (%), UAS7 ≤6: 23 (65.7) n (%)
  OR for rilzabrutinib vs. placebo, UAS7 = 0: 1.800
  OR for rilzabrutinib vs. placebo, UAS7 ≤6: 3.980
  RRD (%) for rilzabrutinib vs. placebo, UAS7 = 0: 6.9 %
  RRD (%) for rilzabrutinib vs. placebo, UAS7 ≤6: 20.3 %
  Responder n (%), UAS7 = 0: 7 (20.0) n (%)
  Responder n (%), UAS7 ≤6: 12 (34.3) n (%)
400 mg BID, ITT population
  Non-responder, UAS7 reduction from baseline of 10 points or more: 23 (56.1) n (%)
  OR for rilzabrutinib vs. placebo, UAS7 reduction of 10 points or more: 2.607
  RRD (%) for rilzabrutinib vs. placebo, UAS7 reduction of 10 points or more: 20.0 %
  Responder, UAS7 reduction from baseline of 10 points or more: 18 (43.9) n (%)
400 mg BID, Omalizumab-Naïve
  UAS7 Change from baseline Mean (SD): −9.96 (8.81)
  UAS7 Change from baseline Median: −9.00
  UAS7 Mean (SD): 19.77 (11.32)
  UAS7 Median: 21.00
  UAS7 Percent change from baseline Mean (SD): −35.41 (33.69) %
  UAS7 Percent change from baseline Median: −26.19%
[1]
  UAS7 Change from baseline Mean (SD): −11.83 (12.14)
  UAS7 Change from baseline Median: −7.50
  UAS7 Median: 23.50
  UAS7 Percent change from baseline Mean (SD): −35.59 (37.55) %
  UAS7 Percent change from baseline Median: −20.53%
[2]
  Non-responder, UAS7 reduction from baseline of 10 points or more: 19 (54.3) n (%)
  OR for rilzabrutinib vs. placebo, UAS7 reduction of 10 points or more: 2.862
  RRD (%) for rilzabrutinib vs. placebo, UAS7 reduction of 10 points or more: 22.3 %
  Responder, UAS7 reduction from baseline of 10 points or more: 16 (45.7) n (%)
400 mg QPM, ITT population
  Non-responder, UAS7 reduction from baseline of 10 points or more: 26 (68.4) n (%)
  OR for rilzabrutinib vs. placebo, UAS7 reduction of 10 points or more: 1.672
  Responder, UAS7 reduction from baseline of 10 points or more: 12 (31.6) n (%)
400 mg QPM, Omalizumab-Naïve
  UAS7 Change from baseline Mean (SD): −7.30 (9.14)
  UAS7 Change from baseline Median: −6.00
  UAS7 Mean (SD): 23.81 (8.78)
  UAS7 Median: 25.00
  UAS7 Percent change from baseline Mean (SD): −21.72 (26.65) %
  UAS7 Percent change from baseline Median: −17.95%
[3]
  UAS7 Change from baseline Mean (SD): −16.00 (NC)
  UAS7 Change from baseline Median: −16.00
  UAS7 Mean (SD): 25.00 (NC)
  UAS7 Median: 25.00
